Some test systems named below: 786-0 renal; A498 renal; A549 NSCLC; HCC-2998 colon; HCT-15 colon; MCF7 breast; RXF 393 renal; SF-295 CNS; SNB-19 CNS; HL-60(TB) leukemia.
What all share (experiment): NCI tumour cell line growth inhibition, 48 h

Values joined by “and” are separate entries in the source; they are usually repeats but may differ in a detail not shown here. Identical values can stand only once.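 Assay format: 96-well plates, 48-hour exposure. GI50 is the concentration that inhibits growth by half. TGI: concentration producing complete growth inhibition.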 A value given as a limit tells only on which side of the number the result lay.

Consider `O=C1c2cccnc2C(=O)c2c1c(C(=O)NCCn1ccnc1)c1ccccn21`, for which the GI50 was 5.47 µM in the assay on 786-0 renal; 5.43 µM in the assay with A498 renal; 1.6 µM with A549 NSCLC; 2.23 µM in the assay on HCC-2998 colon; 3.31 µM in the assay on HCT-15 colon; 1.19 µM in the assay on MCF7 breast. Also, the results for the GI50 with RXF 393 renal, with SF-295 CNS and with SNB-19 CNS were 3.88 µM, 2.66 µM and 2.22 µM, respectively. For the same compound, the TGI in the assay with 786-0 renal is 37.6 µM; in the assay on A498 renal it was 17.6 µM; with A549 NSCLC it was 6.82 µM; with HCC-2998 colon it was 9.82 µM; with HCT-15 colon, 15.1 µM; in the assay on MCF7 breast it was 3.37 µM. Besides, the TGI in the assay on RXF 393 renal stood at 15.7 µM; in the assay on SF-295 CNS it was 14 µM; in the assay on SNB-19 CNS, 11.9 µM.
In the case of `Cc1c(-c2ccc(O)cc2)oc(=O)c2ccc(O)cc12`, the GI50 with 786-0 renal is 50.7 µM; with A498 renal, 42.8 µM; in the assay with A549 NSCLC, 47.6 µM; with HCC-2998 colon it was 36.9 µM; in the assay on HCT-15 colon, 89.8 µM; in the assay on MCF7 breast it was 66.3 µM. Besides, the GI50 in the assay on RXF 393 renal was more than 100 µM; in the assay on SF-295 CNS, 32.8 µM; in the assay on SNB-19 CNS it was more than 100 µM. Further, the TGI in the assay with 786-0 renal is more than 100 µM; in the assay on A498 renal, 98.1 µM; in the assay with A549 NSCLC it was more than 100 µM; in the assay with HCC-2998 colon it was more than 100 µM; with HCT-15 colon, more than 100 µM; in the assay on MCF7 breast, more than 100 µM. Besides, the TGI in the assay on RXF 393 renal, in the assay on SF-295 CNS and in the assay with SNB-19 CNS was more than 100 µM each time.
On to `Clc1ccc(OCc2nnc3n2N=C(c2ccc(Br)cc2)CS3)cc1`, for which the TGI in the assay on 786-0 renal is more than 100 µM; in the assay on A498 renal, 25.7 µM; with A549 NSCLC, more than 100 µM; in the assay on HCC-2998 colon it was more than 100 µM; with HCT-15 colon, more than 100 µM; with HL-60(TB) leukemia it was more than 100 µM. Besides, the TGI with RXF 393 renal was determined as 61.8 µM; in the assay on SF-295 CNS, 37.7 µM; with SNB-19 CNS, 75.1 µM.
On to `CCCCCCCCCCCCCCCCc1c(C(=O)OC)nc(NN)[nH]c1=O`, for which the TGI in the assay with 786-0 renal, in the assay with A498 renal, in the assay with A549 NSCLC, in the assay on HCC-2998 colon, in the assay with HCT-15 colon and in the assay on HL-60(TB) leukemia was more than 50 µM in each case. In addition, the TGI with RXF 393 renal, with SF-295 CNS and in the assay on SNB-19 CNS was more than 50 µM throughout.
For the compound `COc1cc(/C=C/C(=O)/C=C/c2cc3ccc(Cl)cc3n(Cc3ccccc3)c2=O)ccc1O`, the GI50 in the assay on 786-0 renal was 1.78 µM; with A549 NSCLC it was 2.05 µM; in the assay with HCC-2998 colon it was 1.98 µM; in the assay with HCT-15 colon, 1.24 µM; in the assay with MCF7 breast, 0.418 µM; in the assay with RXF 393 renal it was 1.8 µM. Also, the results for the GI50 with SF-295 CNS and with SNB-19 CNS were 3 µM and 1.73 µM, respectively. Besides, the TGI with 786-0 renal came to 3.58 µM; with A549 NSCLC, 5.03 µM; in the assay with HCC-2998 colon, 3.48 µM; with HCT-15 colon, 4.01 µM; in the assay on MCF7 breast, 12.3 µM; with RXF 393 renal, 3.34 µM. Moreover, the TGI came to 10.8 µM in the assay on SF-295 CNS and 3.88 µM in the assay with SNB-19 CNS.
As for `COC1[C@H](NC(=O)OC(C)(C)C)C(=O)N1Cc1ccccc1` (stereo not given in full), the TGI with 786-0 renal, in the assay with A498 renal, in the assay on A549 NSCLC, with HCC-2998 colon, with HCT-15 colon and in the assay on HL-60(TB) leukemia was more than 100 µM throughout. Further, the TGI in the assay with RXF 393 renal, in the assay with SF-295 CNS and with SNB-19 CNS was more than 100 µM in each case.
`ClCc1ccc(Cn2cnc3c(Cl)ncnc32)cc1`: the TGI with 786-0 renal is more than 20 µM; with A498 renal it was 50.4 µM; in the assay with A549 NSCLC it was 38.3 µM; with HCT-15 colon it was more than 36.7 µM; with HL-60(TB) leukemia, 23.1 µM; with MCF7 breast, 55.7 µM. The TGI in the assay on RXF 393 renal came out at 30.4 µM; in the assay with SF-295 CNS, 19.2 µM; in the assay with SNB-19 CNS, 43.3 µM. The GI50 with A498 renal was 29.4 µM; with A549 NSCLC, 11.2 µM; in the assay with HCT-15 colon it was 10.6 µM; with HL-60(TB) leukemia, 10.1 µM; with MCF7 breast, 4.65 µM; in the assay on RXF 393 renal it was 13 µM. For the same compound, the GI50 with SF-295 CNS was 5.71 µM; with SNB-19 CNS it was 16.9 µM.
For `CCCCCCCCCCSC(=O)NC`, the TGI with 786-0 renal is more than 100 µM; in the assay with A498 renal it was more than 100 µM; in the assay on A549 NSCLC, more than 100 µM; with HCC-2998 colon, more than 100 µM; in the assay on HCT-15 colon, 54.8 µM; in the assay on HL-60(TB) leukemia it was 39.9 µM. Moreover, the figures for the TGI with RXF 393 renal, with SF-295 CNS and in the assay on SNB-19 CNS were 44.1 µM, more than 100 µM and more than 100 µM, respectively.
Take `C(=Nc1cnc2ccccc2c1)c1ccc2ccccc2n1`: the TGI with 786-0 renal, in the assay on A498 renal, in the assay on A549 NSCLC, with HCT-15 colon, in the assay with HL-60(TB) leukemia and with MCF7 breast was more than 100 µM in each case. For the same compound, the TGI with RXF 393 renal, with SF-295 CNS and in the assay on SNB-19 CNS was more than 100 µM each time.
Turning to `N#Cc1ccccc1C#C/C=C\C#CC#C/C=C\C#Cc1ccccc1C#N`, the GI50 was 16.6 µM in the assay on 786-0 renal; 11 µM in the assay on A549 NSCLC; 12.7 µM in the assay on HCT-15 colon; 4.12 µM with HL-60(TB) leukemia; 47.4 µM in the assay on MCF7 breast; 15 µM in the assay with RXF 393 renal. In addition, the GI50 with SF-295 CNS was 16.3 µM; with SNB-19 CNS, 7.27 µM. For the same compound, the TGI with 786-0 renal is 42.1 µM; in the assay on A549 NSCLC, more than 100 µM; with HCT-15 colon it was more than 100 µM; in the assay on HL-60(TB) leukemia it was 22.5 µM; with MCF7 breast, more than 100 µM; with RXF 393 renal, 68.2 µM. The TGI with SF-295 CNS is 53 µM; in the assay with SNB-19 CNS it was more than 100 µM.
On to `CC(=O)OC(C)(C)/C=C/C(=O)[C@](C)(O)[C@H]1[C@H](O)C[C@@]2(C)[C@@H]3CC=C4[C@@H](C=C(O)C(=O)C4(C)C)[C@]3(C)C(=O)C[C@]12C`, for which, in the assay on 786-0 renal, the GI50 is 0.0154 µM. The TGI is 6.51 µM and 1.23 µM and 2.65 µM in the assay on A549 NSCLC; 1.56 µM and 0.542 µM and 0.962 µM with HCC-2998 colon; 3.6 µM and 1.77 µM and 1.86 µM in the assay on MCF7 breast; 46.1 nM [middle of 4 runs] in the assay with RXF 393 renal.

Values taken from PubChem BioAssay (NCI).
